Activity calls are given as the source filed them. The calls are words filed in the database; no cut-off is given here.
Columns and labels:
[1] = tested on: Rattus norvegicus; test: Ex vivo antiplatelet activity in Sprague-Dawley rat assessed as inhibition of collagen-induced platelet aggregation at 10 mg/kg, po after 1 hr; assay type: functional
[2] = tested on: Rattus norvegicus; test: Ex vivo antiplatelet activity in Sprague-Dawley rat assessed as inhibition of collagen-induced platelet aggregation at 40 mg/kg, po after 1 hr; assay type: functional
[3] = species on record: Mus musculus; test: Ex vivo antiplatelet activity in mouse assessed as inhibition of collagen-induced platelet aggregation at equivalent dose of ibuprofen after 1 hr
[4] = tested on: Rattus norvegicus; test: Ex vivo antiplatelet activity in Sprague-Dawley rat assessed as inhibition of collagen-induced platelet aggregation at 50 mg/kg, po after 1 hr; assay type: functional

SMILES | inhibition in vivo at 10 mg/kg [1] [%] | inhibition in vivo at 40 mg/kg [2] [%] | inhibition [3] | inhibition in vivo at 50 mg/kg [4] [%]
CC(C)Cc1ccc(C(C)C(=O)O)cc1 (stereo not given) [IBUPROFEN] | 10 | 88 | – | –
CC(C)Cc1ccc(C(C)C(=O)O)c(Cl)n1 (stereo not given) | – | – | inactive | –
CC(C)Cc1ccc(C(C)C(=O)O)cn1 (stereo not given) | 33 | – | – | 65
